Assay results reported in publication PMC12110821, “Polyphyllin I Inhibits the Metastasis of Cervical Cancer Through the Regulation of the β-Catenin Signaling Pathway” (International Journal of Molecular Sciences, 2025).

Target: T1, β-catenin (Homo sapiens, UniProt P35222)
T1 construct: gene CTNNB1; β-catenin protein (11279-H20B, Sinobiological)
T1 sequence (P35222 2-781): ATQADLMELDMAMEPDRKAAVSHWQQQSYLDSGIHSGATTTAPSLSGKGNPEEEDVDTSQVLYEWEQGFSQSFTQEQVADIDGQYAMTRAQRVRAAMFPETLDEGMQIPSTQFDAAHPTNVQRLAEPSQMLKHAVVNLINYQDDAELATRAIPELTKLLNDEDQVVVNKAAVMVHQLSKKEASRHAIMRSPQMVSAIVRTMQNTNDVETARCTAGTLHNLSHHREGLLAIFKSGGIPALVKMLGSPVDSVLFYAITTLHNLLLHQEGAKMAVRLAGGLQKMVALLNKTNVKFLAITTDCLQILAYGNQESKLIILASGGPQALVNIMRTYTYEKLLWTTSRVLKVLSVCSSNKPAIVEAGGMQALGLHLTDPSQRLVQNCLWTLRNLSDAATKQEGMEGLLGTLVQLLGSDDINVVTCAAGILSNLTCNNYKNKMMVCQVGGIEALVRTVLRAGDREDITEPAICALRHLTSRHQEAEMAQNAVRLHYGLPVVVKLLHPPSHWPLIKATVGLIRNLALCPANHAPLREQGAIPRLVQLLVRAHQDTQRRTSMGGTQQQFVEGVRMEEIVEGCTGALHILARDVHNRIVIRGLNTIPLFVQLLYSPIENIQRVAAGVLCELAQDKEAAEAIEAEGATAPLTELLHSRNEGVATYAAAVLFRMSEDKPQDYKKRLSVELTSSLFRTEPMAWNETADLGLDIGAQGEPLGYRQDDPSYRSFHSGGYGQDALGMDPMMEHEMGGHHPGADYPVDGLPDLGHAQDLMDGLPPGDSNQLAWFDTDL
Assay: SPR (Biacore T200, CM5 chip, amine-coupled β-catenin); supported by CETSA in HO-8910PM lysate
Type: binding

C[C@@H]1CC[C@@]2(OC1)O[C@H]1C[C@H]3[C@@H]4CC=C5C[C@@H](O[C@@H]6O[C@H](CO)[C@@H](O[C@@H]7O[C@@H](CO)[C@H](O)[C@H]7O)[C@H](O)[C@H]6O[C@@H]6O[C@@H](C)[C@H](O)[C@@H](O)[C@H]6O)CC[C@]5(C)[C@H]4CC[C@]3(C)[C@H]1[C@@H]2C [PPI, Polyphyllin I] gave a Kd of 2200 nM.
